Measurements as given in patent publication US20210300873A1 (Clear Creek Bio, Inc., priority 2020, published 2021).
Structures can show the parent of a compound that is named as a salt. Where two headings read alike, the source gives them in different places.

Format: physicochemical
Settings: sodium salt; for Stability of the polymorphic form (in words): storage, ambient condition (temperature and humidity) or closed cap

Compound | Stability of the polymorphic form (in words) | Time after which the form converts to Pattern C (ambient condition) | Time after which the form converts to Pattern C (closed cap storage) | other results
Cc1c(-c2ccc(-c3ccccc3F)cc2)nc2ccc(F)cc2c1C(=O)O [Pattern A, brequinar sodium salt] | metastable |  |  | 
Cc1c(-c2ccc(-c3ccccc3F)cc2)nc2ccc(F)cc2c1C(=O)O [Pattern B, brequinar sodium salt] |  | Pattern C after 4 days at ambient |  | 
Cc1c(-c2ccc(-c3ccccc3F)cc2)nc2ccc(F)cc2c1C(=O)O [Pattern C, 6-Flouro-2-(2′-fluoro-1,1′-biphenyl-4-yl)-3-methyl-4-quinolinecarboxylic acid sodium salt] |  |  |  | Stability of the polymorphic form (in words) (listed as polymorphic form C): stable
Cc1c(-c2ccc(-c3ccccc3F)cc2)nc2ccc(F)cc2c1C(=O)O [Pattern D, brequinar sodium salt] | unstable | to Pattern C after 3 days at ambient |  | 
Cc1c(-c2ccc(-c3ccccc3F)cc2)nc2ccc(F)cc2c1C(=O)O [Pattern E, brequinar sodium salt] |  |  | Pattern C after 1 week (closed cap weeks | 
Cc1c(-c2ccc(-c3ccccc3F)cc2)nc2ccc(F)cc2c1C(=O)O [Pattern F, brequinar sodium salt] |  |  | Pattern C after 1 week (closed cap weeks | 
Cc1c(-c2ccc(-c3ccccc3F)cc2)nc2ccc(F)cc2c1C(=O)O [Pattern G, brequinar sodium salt] |  | to Pattern C after 2 weeks at ambient |  | 
Cc1c(-c2ccc(-c3ccccc3F)cc2)nc2ccc(F)cc2c1C(=O)O [Pattern I, brequinar sodium salt] | unstable | 2 days |  | 
Cc1c(-c2ccc(-c3ccccc3F)cc2)nc2ccc(F)cc2c1C(=O)O [Pattern J, brequinar sodium salt] |  |  | 2 weeks | 
